# Data published in patent US12595251B2, “Amidines and amidine analogs for the treatment of bacterial infections and potentiation antibiotics” (GEORGIA STATE UNIVERSITY RESEARCH FOUNDATION, INC., priority 2018, dated 2026).
# Several values for one entry are separate records, joined by “and”; a condition that tells them apart may be missing. Equal values may be shown once. Where a name gives a salt, the structure may show the parent alone. Read-outs that look alike come from different tables or passages of the source.
# Key:
# E. coli = assay: Sensitization of E. coli to erythromycin (sensitization fold from IC90, OD600, 20 h); format: cell-based, Escherichia coli; details: general statement on amidine substitution or ring restraint
# Protocol: E. coli bacteria were cultured in Miller's broth at 37° C. overnight prior to treatment. B. subtilis bacteria were cultured in nutrient broth at 37° C. overnight prior to treatment. […] Bacterial density was measured based on OD600.
# B. subtilis = B. subtilis viability with antibiotic in absence or presence of compound (OD600, 20 h); format: cell-based, Bacillus subtilis; details: M-1 12.5 or 6 μM; A-2 6 or 12.5 μM; A-8; 20 h
# Protocol: Bacterial viability was then determined by measuring density using OD600. […] B. subtilis was also cultured with either novobiocin or tetracycline at varying concentrations either in the absence or presence of compound M-1 (12.5 μM) for 20 hours. Bacterial viability was subsequently determined by measuring density using OD600.
# Bacterial viability was then determined by measuring density using OD600.
# wild type B. subtilis [1] = assay: Sensitization of B. subtilis toward antibiotics (MIC, OD600, 24 h); format: cell-based, Bacillus subtilis; details: for Sensitization effect on B. subtilis: compound at 10 μg/ml; for MIC of antibiotic on B. subtilis in the presence of Compound M-1: 5.5 μg/ml Compound M-1
# Protocol: (§1) FIG. 22A is a bar graph showing that Compound M-1 sensitizes B. subtilis towards rifampicin as described in Example 13. Bacteria was cultured with rifampicin at various concentrations in the presence or absence of Compound M-1 for 24 hours at 37° C. and bacterial growth density was determined by measuring OD600. The y-axis is growth density measured in percent. The x-axis is rifampicin concentration measured in micrograms per milliliter (***: p<0.01).
# Compound M-1 can sensitize Gram-positive bacteria such as B. subtilis towards traditional antibiotics. […] The sensitization fold is 32-fold for Compound M-1 and the FIC index is 0.14.
# MRSA = assay: Sensitization of MRSA toward antibiotics (OD600, 24 h); format: cell-based, Staphylococcus aureus; details: for Sensitization fold, MRSA towards rifampicin: compound at 10 μg/ml
# Protocol: as §1, with “Bacteria” for “FIG. 22A is a bar graph showing that Compound M-1 sensitizes B. subtilis towards rifampicin as described in Example 13. Bacteria”
# Compound M-1 (2.7 μg/ml) sensitizes MRSA towards existing antibiotics such as rifampicin (32-fold) (FIG. 22B) and trovafloxacin (16-fold). Rifampicin is the first line of defense against MRSA and many MRSA stains grow resistance to rifampicin through overexpression of efflux pump and other mechanisms. Combined with Compound M-1, rifampicin can be used more effectively against MRSA.
# wild type B. subtilis [2] = assay: Sensitization of B. subtilis toward antibiotics (MIC, OD600, 24 h); format: cell-based, Bacillus subtilis
# [3] = Lipid A binding assay using Dansyl-PMBN displacement on E. coli; set-up: species or system Escherichia coli; details: 10 μM Dansyl-PMBN on E. coli, gradual addition of compound
# Protocol: FIG. 21 is a graph describing the in vivo lipid A binding assay using Dansyl-PMBN as described in Example 11. Dansyl-PMBN (10 μM) was added to E. coli (OD600 measurement of about 0.5) and the fluorescent intensity at this time was recorded as F0. Sensitizers (Compound C, Compound E-20, and Polymyxin B) were added gradually and the fluorescent intensity was recorded 30 seconds later to determine the fluorescent intensity as a percent. The x-axis is concentration of the sensitizers measured in μM and the y-axis is the fluorescent intensity measured as a percent.
# Lipid A is a key component of the outer membrane of Gram-negative bacteria and is responsible for maintaining its integrity of the outer membrane. The binding affinity of the compounds of the present invention to Lipid A was measured following literature procedures using a fluorescent conjugate of a polymyxin-B derivative (Dansyl-PMBN). Dansyl-PMBN binds to the lipid A part of LPS and leads to increased fluorescent intensity. […] When 10 μM of Dansyl-PMBN was added to E. coli stock (OD600 measurement around 0.5), the fluorescent intensity increased 10-fold.
# wild-type E. coli = assay: Sensitization of wild-type E. coli toward antibiotics (MIC of antibiotic with/without sensitizer); format: cell-based, Escherichia coli; details: for MIC: Escherichia coli; for FIC: fractional inhibitory concentration, antibiotic plus Compound C 5 μg/ml
# Protocol: Bacteria were cultured with the antibiotic at various concentrations in the presence or absence of bacterial sensitizer for 24 hours at 37° C. Bacterial growth density was determined by measuring OD600 (absorbance measured at a wavelength of 600 nm). […]
# The formula for calculating FIC is shown below: […]
# [4] = test system: NDM-1 over-expressing E. coli; assay: microbe, parasite or virus in culture; format: cell-based, Escherichia coli; details: for Sensitization fold: MIC of antibiotic only / MIC with Compound C 5 μg/ml; for FIC / MIC of AB with Compound C (5 μg/ml): antibiotic plus Compound C 5 μg/ml
# E. coli and MRSA = assay: Relative ratio of E. coli and MRSA under trovafloxacin with/without Compound A-8; format: cell-based, Escherichia coli; Staphylococcus aureus; details: trovafloxacin (16 ng/ml) alone
# Text: FIG. 23A is a comparison of the relative ratio of E. coli and MRSA treated with the antibiotic trovafloxacin in the absence (pie chart on the left) and in the presence (pie chart on the right) of Compound A-8 as described in Example 14. In the absence of Compound A-8, trovafloxacin preferred to inhibit E. coli and the bacterial population was 78% MRSA. However, Compound A-8 sensitizes trovafloxacin to MRSA.
# As a proof of concept, the relative ratio of E. coli and MRSA (FIG. 23A) or B. subtilis and MRSA (FIG. 23 B) was measured with and without Compound A-8. […] However, when trovafloxacin (8 ng/ml) is supplied with 1.5 μg/ml of Compound A-8, MRSA inhibition was achieved and E. coli was the dominant species (89% of the bacteria population).
# H9c2 cells = assay: Cytotoxicity in H9c2 cells (CCK-8, 24 h); format: cell-based
# Protocol: (§2) H9c2 (ATCC®R-1446™) cells Were used in the studies. The H9c2 cells were maintained in DMEM (Dulbeccoa's Modified Eagle's Medium) supplemented with 10% fetal bovine serum (Mid Sci; S01520HI) and 1% penicillin-streptomycin (Sigma-Aldrich; P4333) at 37° C. with 5% CO2. The H9c2 cells were seeded in 96-well plate one day before the experiment. Different concentrations of di-amidine compounds were added into the H9c2 cells. The cells were then incubated with the compounds for 24 h at 37° C. with 5% CO2. The cell viability was tested by the CCK-8. Specifically, after 24 h incubation, 10 μL CCK-8 was added to each well. After 3 h incubation at 37° C., the absorbance at 450 nm was recorded by a plate reader. The cytoxicity in HEK293 and 3T3 cells was measured using the same procedure. Data is shown in Table 5 (NT=not toxic; --=not tested).
# HEK293 cells = assay: Cytotoxicity in HEK293 cells (CCK-8, 24 h); format: cell-based
# Protocol: as §2
# 3T3 cells = assay: Cytotoxicity in 3T3 cells (CCK-8, 24 h); format: cell-based; details: NT=not toxic
# Protocol: as §2
# [5] = antibiotic alone, wild-type E. coli, read-out: MIC of AB only
# [6] = read-out: MIC of AB with Compound C (5 μg/ml), antibiotic plus Compound C 5 μg/ml, wild-type E. coli
# [7] = 24 h, antibiotic alone, wild-type E. coli, read-out: MIC of AB only
structure (smiles),measurement,setting,value
"Cc1cc(COc2ccc(C3=NCCN3)cc2)cc(COc2ccc(C3=NCCN3)cc2)c1 [Compound A-2, 2,2′-((((5-Methyl-1,3-phenylene)bis(methylene))bis(oxy))bis(4,1-phenylene))bis(4,5-dihydro-1H-imidazole) Dihydrochloride]",Ability to sensitize Gram-negative bacteria (while preserving ability to sensitize some Gram-positive bacteria),E. coli,"greatly decrease, or even abolish"
same,"B. subtilis growth inhibition, compound in combination with erythromycin vs erythromycin alone",B. subtilis,significant bacterial growth inhibition
"Cc1cc(COc2ccc(C3=NCCCN3)cc2)cc(COc2ccc(C3=NCCCN3)cc2)c1 [Compound B-21, 2,2′-((((5-Methyl-1,3-phenylene)bis(methylene))bis(oxy))bis(4,1-phenylene))bis(1,4,5,6-tetrahydropyrimidine) dihydrochloride]",Ability to sensitize Gram-negative bacteria (while preserving ability to sensitize some Gram-positive bacteria),E. coli,"greatly decrease, or even abolish"
same,Sensitization effect on B. subtilis,wild type B. subtilis [1],no effect
same,"Sensitization fold, MRSA towards rifampicin",MRSA,16 fold
"Cc1cc(COc2ccc(CN)cc2)cc(COc2ccc(CN)cc2)c1 [Compound E-11, 1,3-Bis {(4-methanamine)-phenoxymethyl}-5-methylbenzene dihydrochloride]",Sensitization effect on MRSA,MRSA; compound at 5 μg/ml,no effect
same,"Sensitization fold, B. subtilis towards erythromycin",wild type B. subtilis [2]; compound at 5 μg/ml,32 fold
"CCCNC(=N)c1ccc(COc2cc(C)cc(OCc3ccc(C(=N)NCCC)cc3)c2)cc1 [Compound E-13, 1,3-Bis {(4-n-propylamidino)-benzyloxy}-5-methylbenzene dihydrochloride]",Ability to sensitize Gram-negative bacteria (while preserving ability to sensitize some Gram-positive bacteria),E. coli,"greatly decrease, or even abolish"
same,Sensitization effect on B. subtilis,wild type B. subtilis [1],no effect
same,"Sensitization fold, MRSA towards rifampicin",MRSA,16 fold
"CCCCCc1cc(OCc2ccc(C(=N)N)cc2)cc(OCc2ccc(C(=N)N)cc2)c1 [Compound E-20, 1,3-Bis {(4-amidino)-benzyloxy}-5-(n-pentyl)benzene dihydrochloride]",Binding to lipid A (decrease of Dansyl-PMBN fluorescent intensity),[3],bind to lipid A
"CC[C@H]1OC(=O)[C@H](C)[C@@H](O[C@H]2C[C@@](C)(OC)[C@@H](O)[C@H](C)O2)[C@H](C)[C@@H](O[C@@H]2O[C@H](C)C[C@H](N(C)C)[C@H]2O)[C@](C)(O)C[C@@H](C)C(=O)[C@H](C)[C@@H](O)[C@]1(C)O [Erythromycin, erythromycin]",MIC,wild-type E. coli; [5],50 µg/mL
same,MIC,wild-type E. coli; [6],0.4 µg/mL
same,FIC,wild-type E. coli; wild-type E. coli,0.11
same,MIC of antibiotic on B. subtilis in the presence of Compound M-1,wild type B. subtilis [1],1.5 µg/mL
same,MIC of antibiotic on B. subtilis in the absence of Compound M-1,wild type B. subtilis [2]; antibiotic alone,50 µg/mL
"CO[C@H]1/C=C/O[C@@]2(C)Oc3c(C)c(O)c4c(O)c(c(/C=N/N5CCN(C)CC5)c(O)c4c3C2=O)NC(=O)/C(C)=C\C=C\[C@H](C)[C@H](O)[C@@H](C)[C@@H](O)[C@@H](C)[C@H](OC(C)=O)[C@@H]1C [Rifampicin, rifampicin]",MIC,wild-type E. coli; [7],10 µg/mL
same,MIC,wild-type E. coli; [5],10 µg/mL
same,MIC,wild-type E. coli; [6],0.02 µg/mL
same,Sensitization fold,"wild-type E. coli; MIC of antibiotic only / MIC of antibiotic with Compound C 5 μg/ml, wild-type E. coli",516 and 512
same,FIC,wild-type E. coli; wild-type E. coli,0.11 and 0.10
same,Sensitization fold,[4],516
same,FIC,[4],0.11
same,MIC of AB with Compound C (5 μg/ml),[4],0.019 µg/mL
same,MIC of antibiotic on B. subtilis in the presence of Compound M-1,wild type B. subtilis [1],0.037 µg/mL
"N[C@@H]1[C@H]2CN(c3nc4c(cc3F)c(=O)c(C(=O)O)cn4-c3ccc(F)cc3F)C[C@@H]12 [Trovafloxacin, trovafloxacin]",MIC,wild-type E. coli; [7],0.05 µg/mL
same,MIC,wild-type E. coli; [5],0.05 µg/mL
same,MIC,wild-type E. coli; [6],0.0015 µg/mL
same,FIC,wild-type E. coli; wild-type E. coli,0.13
same,MIC,"[4]; Escherichia coli, antibiotic alone, read-out: MIC of AB only",0.025 µg/mL
same,Sensitization fold,[4],32
same,FIC,[4],0.13
same,MIC of AB with Compound C (5 μg/ml),[4],0.0008 µg/mL
same,MRSA share of the bacteria population (E. coli + MRSA),E. coli and MRSA,78%
N=C(N)c1ccc(OCc2cccc(COc3ccc(C(=N)N)cc3F)c2F)c(F)c1 [drawing 854],H9c2 CC^50,H9c2 cells,50 µM
same,HEK293 CC^50,HEK293 cells,100 µM
same,"3T3 cytotoxicity at 100 μM (""100 μM result in x%"")",3T3 cells,100 μM result in 30%
